{"source": "patent US20160067221A1", "about": "“USE OF ERGOTHIONEINE FOR INDUCING ACTIVITY OF NRF2 IN CELL” (China Medical University, priority 2014, published 2016)", "assay_type_in_all_cases": "cell-based, human", "key": {"[1]": {"system": "UVA-irradiated HaCaT cells", "experiment": "Western blot of apoptosis-related proteins (Caspase-3, Caspase-9, Bax, Bcl-2)", "conditions": "125-500 nM 24 hours prior to UVA 15 J/cm^2, 4 hours", "protocol": "The apoptosis can induce DNA double-strand breaks to generate a DNA fragment, To examine the effect of the ergothioneine on the UVA-induced apoptosis, an apoptotic cell death is measured using a terminal deoxyucleotidyl transferase-meditated dUTP-fluorescein nick end-labeking (TUNEL) assay, and protein expressions of apoptosis-related proteins, Caspase-3, Caspase-9, Bax and Bcl-2, are measured using a Western blot analysis. Therefore, the aforementioned methods in this example can analyze whether pretreating with the ergothioneine improves the UVA-induced apoptosis. […] After incubation, the HaCaT cells are exposed to the UVA (15 J/cm^2), and then incubated for 4 hours. Then, the protein expressions of Caspase-3, Caspase-9, Bax and Bcl-2 are measured using the Western blot analysis. FIG. 6 illustrates the effect of the ergothioneine on the protein expressions of apoptosis-related proteins of the UVA-irradiated HaCaT cells. FIG. 6-(A) represents the Western blot analysis results. FIG. 6-(B) is the quantitative diagram of the protein expressions of Caspase-3 and Caspase-9. FIG. 6-(C) is the quantitative diagram of a Bax/Bcl-2 ratio."}, "[2]": {"system": "UVA-irradiated HaCaT cells", "experiment": "Total glutathione (GSH) content, DTNB method", "conditions": "125-500 nM 24 hours prior to 15 J/cm^2 UVA, 4 hours; dose-dependent", "description": "A glutathione (GSH), the antioxidant in animal cells, can protect DNA against external oxidative stresses. Given that the ergothioneine treatment to the HaCaT cells can reduce the DNA damage of the HaCaT cells; this example next investigates the UVA-induced oxidative damage by determining a total GSH content of the HaCaT cells treated with the ergothioneine or the UVA irradiation. A glutathione disulfide (GSSG) is an oxidized form of the GSH, and the GSSG can be reduced to the GSH by a glutathione reductase. Antioxidant enzymes, such as glutathione peroxidases and peroxiredoxins, generate glutathione disulfide during the reduction of peroxides such as hydrogen peroxide (H2O2) and organic hydroperoxides (ROOH). The GSH generates a yellow-colored 5-thio-2-nitrobenzoic acid (TNB) and a […] GSTNB (between GSH and TNB) during the reaction of 5,5′-dithiobis-(2-nitrobenzoic acid) (DTNB), wherein the content of (GSSG+GSH) is the rate determining factor of color production in aforementioned reactions. The rate of the yellow-colored TNB production is directly proportional to the concentration of (GSSG+GSH) in a sample. Thus, measurement of the absorbance of the TNB provides an accurate estimation of the amount of total glutathione (GSSG+GSH) in the sample. […] The net absorbance at 405 nm yields an accurate amount of the total glutathione in the sample."}, "[3]": {"system": "antioxidant response element (ARE)", "experiment": "ARE luciferase gene reporter assay", "conditions": "HaCaT cells treated for 4 hours, vs untreated", "description": "The Nrf2 binds to the small Maf after translocating into the nucleus. […] Given that the ergothioneine treatment to the HaCaT cells can promote the Nrf2 translocating into the nucleus; this example next investigates whether the ARE transcriptional activity can be started by using a luciferase gene reporter assay. The luciferase gene reporter assay is transfected a plasmid containing the ARE gene and a luciferase gene into the HaCaT cells, wherein the luciferase gene is a reporter gene. An internal standard of the luciferase gene reporter assay is β-galactosidase, and a luminescence intensity is measured by Dual Light Kit (Applied Biosystems)."}, "[4]": {"system": "Nrf2", "experiment": "Western blot in Nrf2 knockdown HaCaT cells (siRNA transfection)", "conditions": "Nrf2 siRNA transfected cells, 500 nM ergothioneine 24 hours", "description": "The Nrf2 is an important transcription factor, the downstream antioxidant enzymes are regulated by the Nrf2 transcription gene. To examine protective effects of the ergothioneine on the HaCaT cells indeed through the Nrf2 activation, we developed an Nrf2 gene knockdown model in the HaCaT cells by a siRNA transfection in this example. Then, the expression of the downstream antioxidant gene is observed to investigate whether the protective properties of the ergothioneine will be affected.\n(§1) The siRNA transfection includes steps as follows. The HaCaT cells are seeded in a 6-well plate with 4×10^5 cells/well and then maintained at 37° C. in the humidified atmosphere of 5% CO2 untill the time of the transfection. The day after reaching 40-60% confluence, the culture medium is replaced with 1 mL of FBS-free and antibiotic-free culture medium in each well, and the HaCaT cells are transfected with a siNrf2 or a control siRNA by using Lipofectamine 2000 (Invitrogen, U.S.A.) for 4-6 hours. After the incubation for 4-6 hours, the HaCaT cells are washed with the culture medium supplemented with 10% FBS 2-3 times, and then cultured in the culture medium supplemented with 10% FBS for 12-16 hours.\nAfter the siRNA transfection, the HaCaT cells are treated with 500 nM ergothioneine for 24 hours. After the ergothioneine treatment, the HaCaT cells are subjected to analyses of the protein express on of the Nrf2 in 1 hour post-treatment and the protein expressions of HO-1 γ-GCLC and NQO-1 in 4 hours post-treatment by the Western blot analysis. FIG. 13-(A) illustrates the effect of the ergothioneine on protein expression of the Nrf2 in Nrf2 knockdown HaCaT cells by using the siRNA transfection."}, "[5]": {"system": "Nrf2 knockdown HaCaT cells", "experiment": "MTT cell viability in siRNA-transfected HaCaT cells", "conditions": "500 nM 24 hours, UVA 15 J/cm^2 4 hours", "protocol": "as §1\nThe HaCaT cells are incubated with 500 nM ergothioneine for 24 hours after the siRNA transfection."}}}
{"smiles": "C[N+](C)(C)[C@@H](Cc1c[nH]c(=S)[nH]1)C(=O)[O-]", "note": "[ergothioneine, 2-mercapto histidine trimethylbetain]", "values": [{"measurement": "Bax/Bcl-2 ratio", "setting": "[1]", "value": "significantly reduced"}, {"measurement": "protein expression of Caspase-3", "setting": "[1]", "value": "significantly reduced"}, {"measurement": "protein expression of Caspase-9", "setting": "[1]", "value": "significantly reduced"}, {"measurement": "total glutathione level", "setting": "[2]", "value": "increased"}, {"measurement": "luciferase activity derived from the ARE promoter", "setting": "[3]", "value": "increased"}, {"measurement": "expression of HO-1", "setting": "[4]", "value": "not shown the increased expression"}, {"measurement": "expression of NQO-1", "setting": "[4]", "value": "not shown the increased expression"}, {"measurement": "expression of γ-GCLC", "setting": "[4]", "value": "not shown the increased expression"}, {"measurement": "UVA-induced cell death", "setting": "[5]; Nrf2 siRNA", "value": "unable to ameliorate the UVA-induced cell death"}, {"measurement": "UVA-induced cell death", "setting": "[5]; control siRNA", "value": "able to reduce a UVA-induced cell death"}]}
